Data reported in ChEMBL document CHEMBL1145390, “Synthesis and preliminary biological characterization of new semisynthetic derivatives of ramoplanin” (J Med Chem, 2007).
Values after ≈ are worked out from the molar mass of the structure shown. Numbered stars: 1 amine (or outer) side, 2 acyl side, 3 side chain; on linkers, the order of the positions; unused ones are H or OH. Bridge positions count the residues as written; N and C are the ends. Square brackets hold non-standard residues; d marks the D form. Peptide text beside a SMILES is read from it. * marks the point of attachment. Hpg(αMan(1-2)αMan) = N[C@H](C(=O)O)c1ccc(O[C@H]2O[C@H](CO)[C@@H](O)[C@H](O)[C@@H]2O[C@H]2O[C@H](CO)[C@@H](O)[C@H](O)[C@@H]2O)cc1; Octa(2Z,4E)dienoyl(7-Me) = CC(C)C/C=C/C=C\C(=O)*; X1 = NC(=O)[C@@H](O[*:3])[C@H](N[*:1])C(=O)[*:2]; Hpg(3-Cl) = N[C@H](C(=O)O)c1ccc(O)c(Cl)c1; d(aThr) = C[C@@H](O)[C@@H](N)C(=O)O; dHpg = N[C@@H](C(=O)O)c1ccc(O)cc1; Hpg = N[C@H](C(=O)O)c1ccc(O)cc1; aThr = C[C@H](O)[C@H](N)C(=O)O; dOrn = NCCC[C@@H](N)C(=O)O

Assays:
Enterococcus faecalis [1] = assay: Antibacterial activity against vancomycin-resistant Enterococcus faecalis in presence of 30% bovine serum after 24 hrs by broth microdilution method; type: functional
Streptococcus pyogenes = assay: Antibacterial activity against Streptococcus pyogenes C203 after 24 hrs by broth microdilution method; type: functional; conditions: C203, 24 h, read-out: MIC
Staphylococcus aureus [2] = assay: Antibacterial activity against methicillin-resistant Staphylococcus aureus clinical isolate after 24 hrs by broth microdilution method; type: functional; conditions: read-out: MIC
[3] = Toxicity assessed as hemolysis in erythrocytes at 100 mg/L; type: cell-based, Erythrocyte; conditions: human, read-out: Activity
Enterococcus faecium [4] = assay: Antibacterial activity against vancomycin A-resistant Enterococcus faecium clinical isolate in presence of 30% bovine serum after 24 hrs by broth microdilution method; type: functional
Candida albicans = assay: Antifungal activity against Candida albicans SKF-2270 after 24 hrs by broth microdilution method; type: functional; conditions: read-out: MIC
Enterococcus faecalis [5] = assay: Antibacterial activity against Enterococcus faecalis after 24 hrs by broth microdilution method; type: functional; conditions: read-out: MIC
Staphylococcus aureus [6] = assay: Antibacterial activity against Staphylococcus aureus Smith after 24 hrs by broth microdilution method; type: functional; conditions: read-out: MIC
Staphylococcus aureus [7] = assay: Antibacterial activity against Staphylococcus aureus Smith in presence of 30% bovine serum after 24 hrs by broth microdilution method; type: functional
Staphylococcus aureus [8] = assay: Antibacterial activity against methicillin-resistant and vancomycin-intermediate resistant Staphylococcus aureus clinical isolate after 24 hrs by broth microdilution method; type: functional; conditions: read-out: MIC
Staphylococcus aureus [9] = assay: Antibacterial activity against vancomycin-intermediate resistant Staphylococcus aureus clinical isolate in presence of 30% bovine serum after 24 hrs by broth microdilution method; type: functional
Staphylococcus aureus [10] = assay: Antibacterial activity against vancomycin-intermediate resistant Staphylococcus aureus clinical isolate after 24 hrs by broth microdilution method; type: functional
[11] = Toxicity assessed as hemolysis in erythrocytes at 400 mg/L; type: cell-based, Erythrocyte; conditions: human, read-out: Activity
[12] = Toxicity assessed as hemolysis in erythrocytes at 200 mg/L; type: cell-based, Erythrocyte; conditions: human, read-out: Activity
Escherichia coli = assay: Antibacterial activity against Escherichia coli SKF-12140 after 24 hrs by broth microdilution method; type: functional; conditions: read-out: MIC
Enterococcus faecium [13] = assay: Antibacterial activity against Enterococcus faecium after 24 hrs by broth microdilution method; type: functional; conditions: read-out: MIC
Enterococcus faecium [14] = assay: Antibacterial activity against vancomycin A-resistant Enterococcus faecium clinical isolate after 24 hrs by broth microdilution method; type: functional; conditions: read-out: MIC
Enterococcus faecalis [15] = assay: Antibacterial activity against vancomycin A-resistant Enterococcus faecalis after 24 hrs by broth microdilution method; type: functional; conditions: read-out: MIC
[16] = Toxicity assessed as hemolysis in erythrocytes at 90 mg/L; type: cell-based, Erythrocyte; conditions: human, erythrocytes; read-out: Activity
[17] = Toxicity assessed as hemolysis in erythrocytes at 180 mg/L; type: cell-based, Erythrocyte; conditions: human, erythrocytes; read-out: Activity

| Compound | MIC (Enterococcus faecalis [1]) [µg/mL] | MIC (Streptococcus pyogenes) [µg/mL] | MIC (Staphylococcus aureus [2]) [µg/mL] | hemolysis at 100 mg/L [3] [%] | MIC (Enterococcus faecium [4]) [µg/mL] | MIC (Candida albicans) [µg/mL] | MIC (Enterococcus faecalis [5]) [µg/mL] | MIC (Staphylococcus aureus [6]) [µg/mL] | MIC (Staphylococcus aureus [7]) [µg/mL] | MIC (Staphylococcus aureus [8]) [µg/mL] | MIC (Staphylococcus aureus [9]) [µg/mL] | MIC (Staphylococcus aureus [10]) [µg/mL] | hemolysis at 400 mg/L [11] [%] | hemolysis at 200 mg/L [12] [%] | MIC (Escherichia coli) [µg/mL] | MIC (Enterococcus faecium [13]) [µg/mL] | MIC (Enterococcus faecium [14]) [µg/mL] | MIC (Enterococcus faecalis [15]) [µg/mL] | hemolysis at 90 mg/L [16] [%] | hemolysis at 180 mg/L [17] [%] |
| --- | --- | --- | --- | --- | --- | --- | --- | --- | --- | --- | --- | --- | --- | --- | --- | --- | --- | --- | --- | --- |
| CC(C)C/C=C/C=C/CC(=O)N[C@@H](CC(N)=O)C(=O)NC[C@@H]1C(=O)N[C@H](c2ccc(O)cc2)C(=O)N[C@H](CCCN)C(=O)N[C@H](C(C)C)C(=O)N[C@@H](c2ccc(O)cc2)C(=O)N[C@H](c2ccc(O)cc2)C(=O)N[C@@H]([C@@H](C)O)C(=O)N[C@@H](Cc2ccccc2)C(=O)N[C@H](CCCN)C(=O)N[C@@H](c2ccc(O[C@H]3O[C@H](CO)[C@@H](O)[C@H](O)[C@@H]3O[C@H]3O[C@H](CO)[C@@H](O)[C@H](O)[C@@H]3O)cc2)C(=O)N[C@H]([C@@H](C)O)C(=O)N[C@@H](c2ccc(O)cc2)C(=O)NCC(=O)N[C@@H](CC(C)C)C(=O)N[C@H](C)C(=O)N[C@@H](c2ccc(O)c(Cl)c2)C(=O)O[C@@H]1C(N)=O | 0.5 | ≤ 0.125 | ≤ 0.125 | 85 | 1 | > 128 | ≤ 0.125 | ≤ 0.125 | 1 | 1 (≈ 0.388 µM) | 4 | 0.5 (≈ 0.194 µM) | 78 | 87 | > 128 | ≤ 0.125 |  |  |  |  |
| CC(C)/C=C/C=C\CC(=O)N[C@@H](CC(N)=O)C(=O)NC[C@@H]1C(=O)N[C@H](c2ccc(O)cc2)C(=O)N[C@H](CCCN)C(=O)N[C@H](C(C)C)C(=O)N[C@@H](c2ccc(O)cc2)C(=O)N[C@H](c2ccc(O)cc2)C(=O)N[C@@H]([C@@H](C)O)C(=O)N[C@@H](Cc2ccccc2)C(=O)N[C@H](CCCN)C(=O)N[C@@H](c2ccc(O[C@H]3O[C@H](CO)[C@@H](O)[C@H](O)[C@@H]3O[C@H]3O[C@H](CO)[C@@H](O)[C@H](O)[C@@H]3O)cc2)C(=O)N[C@H]([C@@H](C)O)C(=O)N[C@@H](c2ccc(O)cc2)C(=O)NCC(=O)N[C@@H](CC(C)C)C(=O)N[C@H](C)C(=O)N[C@@H](c2ccc(O)c(Cl)c2)C(=O)O[C@@H]1C(N)=O | 0.5 | ≤ 0.125 | ≤ 0.125 | 64 | 1 | > 128 | ≤ 0.125 | ≤ 0.125 | 0.5 | 1 (≈ 0.39 µM) | 2 | 0.5 (≈ 0.195 µM) | 97 | 81 | > 128 | 0.25 (≈ 0.0974 µM) | ≤ 0.125 |  |  |  |
| CC(C)/C=C/C=C/CC(=O)N[C@@H](CC(N)=O)C(=O)NC[C@@H]1C(=O)N[C@H](c2ccc(O)cc2)C(=O)N[C@H](CCCN)C(=O)N[C@H](C(C)C)C(=O)N[C@@H](c2ccc(O)cc2)C(=O)N[C@H](c2ccc(O)cc2)C(=O)N[C@@H]([C@@H](C)O)C(=O)N[C@@H](Cc2ccccc2)C(=O)N[C@H](CCCN)C(=O)N[C@@H](c2ccc(O[C@H]3O[C@H](CO)[C@@H](O)[C@H](O)[C@@H]3O[C@H]3O[C@H](CO)[C@@H](O)[C@H](O)[C@@H]3O)cc2)C(=O)N[C@H]([C@@H](C)O)C(=O)N[C@@H](c2ccc(O)cc2)C(=O)NCC(=O)N[C@@H](CC(C)C)C(=O)N[C@H](C)C(=O)N[C@@H](c2ccc(O)c(Cl)c2)C(=O)O[C@@H]1C(N)=O | 1 | ≤ 0.125 | 0.25 (≈ 0.0974 µM) | 30 | 1 | > 128 | 0.25 (≈ 0.0974 µM) | ≤ 0.125 | 1 | 2 (≈ 0.779 µM) | 4 | 1 (≈ 0.39 µM) |  | 29 | > 128 | 0.25 (≈ 0.0974 µM) | ≤ 0.125 | ≤ 0.125 |  |  |
| CCC/C=C/C=C\CC(=O)N[C@@H](CC(N)=O)C(=O)NC[C@@H]1C(=O)N[C@H](c2ccc(O)cc2)C(=O)N[C@H](CCCN)C(=O)N[C@H](C(C)C)C(=O)N[C@@H](c2ccc(O)cc2)C(=O)N[C@H](c2ccc(O)cc2)C(=O)N[C@@H]([C@@H](C)O)C(=O)N[C@@H](Cc2ccccc2)C(=O)N[C@H](CCCN)C(=O)N[C@@H](c2ccc(O[C@H]3O[C@H](CO)[C@@H](O)[C@H](O)[C@@H]3O[C@H]3O[C@H](CO)[C@@H](O)[C@H](O)[C@@H]3O)cc2)C(=O)N[C@H]([C@@H](C)O)C(=O)N[C@@H](c2ccc(O)cc2)C(=O)NCC(=O)N[C@@H](CC(C)C)C(=O)N[C@H](C)C(=O)N[C@@H](c2ccc(O)c(Cl)c2)C(=O)O[C@@H]1C(N)=O | 0.5 | ≤ 0.125 | ≤ 0.125 | 65 | 1 | > 128 | ≤ 0.125 | ≤ 0.125 | 0.5 | 1 (≈ 0.39 µM) | 2 | 0.5 (≈ 0.195 µM) | 94 | 83 | > 128 | ≤ 0.125 |  |  |  |  |
| CC(C)C/C=C/C=C\C(=O)N[C@@H](CC(N)=O)C(=O)N[C@@H]1C(=O)N[C@H](c2ccc(O)cc2)C(=O)N[C@H](CCCN)C(=O)N[C@H]([C@@H](C)O)C(=O)N[C@@H](c2ccc(O)cc2)C(=O)N[C@H](c2ccc(O)cc2)C(=O)N[C@@H]([C@H](C)O)C(=O)N[C@@H](Cc2ccccc2)C(=O)N[C@H](CCCN)C(=O)N[C@@H](c2ccc(O[C@H]3O[C@H](CO)[C@@H](O)[C@H](O)[C@@H]3O[C@H]3O[C@H](CO)[C@@H](O)[C@H](O)[C@@H]3O)cc2)C(=O)N[C@H]([C@@H](C)O)C(=O)N[C@@H](c2ccc(O)cc2)C(=O)NCC(=O)N[C@@H](CC(C)C)C(=O)N[C@H](C)C(=O)N[C@@H](c2ccc(O)c(Cl)c2)C(=O)O[C@@H]1C(N)=O [RAMOPLANIN A2] ({Octa(2Z,4E)dienoyl(7-Me)}-N[X1][dHpg][dOrn][d(aThr)][Hpg][dHpg][aThr]F[dOrn][Hpg(αMan(1-2)αMan)][d(aThr)][Hpg]GL[dA][Hpg(3-Cl)]; ester 2-C) |  | < 0.03 | 0.06 (≈ 0.0235 µM) | 87 |  | < 32 | < 0.03 | < 0.03 |  | 1 (≈ 0.392 µM) |  | 0.25 (≈ 0.0979 µM) |  |  | < 32 | < 0.03 |  |  | 81 | 79 |
| CCC/C=C/C=C/CC(=O)N[C@@H](CC(N)=O)C(=O)NC[C@@H]1C(=O)N[C@H](c2ccc(O)cc2)C(=O)N[C@H](CCCN)C(=O)N[C@H](C(C)C)C(=O)N[C@@H](c2ccc(O)cc2)C(=O)N[C@H](c2ccc(O)cc2)C(=O)N[C@@H]([C@@H](C)O)C(=O)N[C@@H](Cc2ccccc2)C(=O)N[C@H](CCCN)C(=O)N[C@@H](c2ccc(O[C@H]3O[C@H](CO)[C@@H](O)[C@H](O)[C@@H]3O[C@H]3O[C@H](CO)[C@@H](O)[C@H](O)[C@@H]3O)cc2)C(=O)N[C@H]([C@@H](C)O)C(=O)N[C@@H](c2ccc(O)cc2)C(=O)NCC(=O)N[C@@H](CC(C)C)C(=O)N[C@H](C)C(=O)N[C@@H](c2ccc(O)c(Cl)c2)C(=O)O[C@@H]1C(N)=O | 0.5 | ≤ 0.125 | ≤ 0.125 | 23 | 1 | > 128 | ≤ 0.125 | ≤ 0.125 | 0.5 | 1 (≈ 0.39 µM) | 2 | 0.5 (≈ 0.195 µM) | 78 | 37 | > 128 | ≤ 0.125 |  |  |  |  |
